Experiments:
DCAMKL2 = biological target: T1, DCAMKL2 (Homo sapiens, UniProt Q8N568); assay: kinome scan; assay type: binding; conditions: 10 µM
T1 construct: purchased DiscoverX (KINOMEscan)

ROCK2 = biological target: T2, ROCK2 (Homo sapiens, UniProt O75116); assay: kinome scan; assay type: binding; conditions: 10 µM
T2 construct: purchased DiscoverX (KINOMEscan)

PAK4 = biological target: T3, PAK4 (Homo sapiens, UniProt O96013); assay: kinome scan; assay type: binding; conditions: 10 µM
T3 construct: purchased DiscoverX (KINOMEscan)

CLK2 = biological target: T4, CLK2 (Homo sapiens, UniProt P49760); assay: kinome scan; assay type: binding; conditions: 10 µM
T4 construct: purchased DiscoverX (KINOMEscan)

[1] = biological target: T5, RSK2(Kin.Dom.1-N-terminal) (Homo sapiens, UniProt P51812); assay: kinome scan; assay type: binding; conditions: 10 µM
T5 construct: RSK2(Kin.Dom.1-N-terminal); purchased DiscoverX (KINOMEscan)

EPHA2 = biological target: T6, EPHA2 (Homo sapiens, UniProt P29317); assay: kinome scan; assay type: binding; conditions: 10 µM
T6 construct: purchased DiscoverX (KINOMEscan)

PRKD1 = biological target: T7, PRKD1 (Homo sapiens, UniProt Q15139); assay: kinome scan; assay type: binding; conditions: 10 µM
T7 construct: purchased DiscoverX (KINOMEscan)

CIT = biological target: T8, CIT (Homo sapiens, UniProt O14578); assay: kinome scan; assay type: binding; conditions: 10 µM
T8 construct: purchased DiscoverX (KINOMEscan)

NDR2 = biological target: T9, NDR2 (Homo sapiens, UniProt Q9Y2H1); assay: kinome scan; assay type: binding; conditions: 10 µM
T9 construct: purchased DiscoverX (KINOMEscan)

SRPK3 = biological target: T10, SRPK3 (Homo sapiens, UniProt Q9UPE1); assay: kinome scan; assay type: binding; conditions: 10 µM
T10 construct: purchased DiscoverX (KINOMEscan)

MEK2 = biological target: T11, MEK2 (Homo sapiens, UniProt P36507); assay: kinome scan; assay type: binding; conditions: 10 µM
T11 construct: purchased DiscoverX (KINOMEscan)

CSK = biological target: T12, CSK (Homo sapiens, UniProt P41240); assay: kinome scan; assay type: binding; conditions: 10 µM
T12 construct: purchased DiscoverX (KINOMEscan)

HUNK = biological target: T13, HUNK (Homo sapiens, UniProt P57058); assay: kinome scan; assay type: binding; conditions: 10 µM
T13 construct: purchased DiscoverX (KINOMEscan)

FGFR1 = biological target: T14, FGFR1 (Homo sapiens, UniProt P11362); assay: kinome scan; assay type: binding; conditions: 10 µM
T14 construct: purchased DiscoverX (KINOMEscan)

RIOK1 = biological target: T15, RIOK1 (Homo sapiens, UniProt Q9BRS2); assay: kinome scan; assay type: binding; conditions: 10 µM
T15 construct: purchased DiscoverX (KINOMEscan)

LRRK2(G2019S) = biological target: T16, LRRK2(G2019S) (Homo sapiens, UniProt Q5S007, G2019S); assay: kinome scan; assay type: binding; conditions: 10 µM
T16 construct: purchased DiscoverX (KINOMEscan)

EGFR(E746-A750del) = biological target: T17, EGFR(E746-A750del) (Homo sapiens, UniProt P00533, DEL746-750); assay: kinome scan; assay type: binding; conditions: 10 µM
T17 construct: purchased DiscoverX (KINOMEscan)

[2] = biological target: T18, RPS6KA4(Kin.Dom.1-N-terminal) (Homo sapiens, UniProt O75676); assay: kinome scan; assay type: binding; conditions: 10 µM
T18 construct: RPS6KA4(Kin.Dom.1-N-terminal); purchased DiscoverX (KINOMEscan)

[3] = system: Hemoglobin beta chain splicing at IVS2 705 locus; set-up: method as in CHEMBL1614204; conditions: reported activity, data mining; ref CHEMBL1614204; cited from earlier work
[4] = biological target: T19, RSK4(Kin.Dom.2-C-terminal) (Homo sapiens, UniProt Q9UK32); assay: kinome scan; assay type: binding; conditions: 10 µM
T19 construct: RSK4(Kin.Dom.2-C-terminal); purchased DiscoverX (KINOMEscan)

AURKC = biological target: T20, AURKC (Homo sapiens, UniProt Q9UQB9); assay: kinome scan; assay type: binding; conditions: 10 µM
T20 construct: purchased DiscoverX (KINOMEscan)

TRKC = biological target: T21, TRKC (Homo sapiens, UniProt Q16288); assay: kinome scan; assay type: binding; conditions: 10 µM
T21 construct: purchased DiscoverX (KINOMEscan)

KIT(V559DT670I) = biological target: T22, KIT(V559DT670I) (Homo sapiens, UniProt P10721, T670I/V559D); assay: kinome scan; assay type: binding; conditions: 10 µM
T22 construct: purchased DiscoverX (KINOMEscan)

FLT1 = biological target: T23, FLT1 (Homo sapiens, UniProt P17948); assay: kinome scan; assay type: binding; conditions: 10 µM
T23 construct: purchased DiscoverX (KINOMEscan)

EGFR(L747-T751delSins) = assay: kinome scan; assay type: binding, human; conditions: 10 µM
CAMKK1 = biological target: T24, CAMKK1 (Homo sapiens, UniProt Q8N5S9); assay: kinome scan; assay type: binding; conditions: 10 µM
T24 construct: purchased DiscoverX (KINOMEscan)

PIK3C2B = biological target: T25, PIK3C2B (Homo sapiens, UniProt O00750); assay: kinome scan; assay type: binding; conditions: 10 µM
T25 construct: purchased DiscoverX (KINOMEscan)

[5] = biological target: T26, ABL1(T315I)-nonphosphorylated (Homo sapiens, UniProt P00519, T315I); assay: kinome scan; assay type: binding; conditions: 10 µM
T26 construct: purchased DiscoverX (KINOMEscan)

BRAF = biological target: T27, BRAF (Homo sapiens, UniProt P15056); assay: kinome scan; assay type: binding; conditions: 10 µM
T27 construct: purchased DiscoverX (KINOMEscan)

PIM3 = biological target: T28, PIM3 (Homo sapiens, UniProt Q86V86); assay: kinome scan; assay type: binding; conditions: 10 µM
T28 construct: purchased DiscoverX (KINOMEscan)

EPHA7 = biological target: T29, EPHA7 (Homo sapiens, UniProt Q15375); assay: kinome scan; assay type: binding; conditions: 10 µM
T29 construct: purchased DiscoverX (KINOMEscan)

HeLa cells = assay: LC3B positive autophagosomes, immunofluorescent staining; assay type: cell-based; conditions: 10 µM, three days
Method: Cells were fixed with PBS containing 0.5% of para-formaldehyde for 15 min at room temperature. After three washing steps in PBS, cells were permeabilized with PBS containing 0.3% of Triton X-100 (Sigma) for 1 h at room temperature. After washing with PBS three times, cells were incubated overnight with the anti-LC3B antibody in PBS with 1% bovine serum albumin (Sigma) at 4°C. After three washing steps in PBS, cells were incubated with the fluorescent secondary antibody for 90 min at 4°C in PBS with 1% bovine serum albumin. They were then incubated with […] DAPI (Thermofisher) in PBS for 15 min. After washing with PBS, cells were rinsed once in water prior to mounting in the FluorSave reagent (Millipore).
Depending of these transitory environmental conditions, autophagy can either promote survival or apoptosis ([Degtyarev et al., 2008]). PIK/AKT pathway inhibition has been reported to increase cell autophagy ([Palmieri et al., 2017]). More specifically, PIP4K2C has been described as a down-regulator of autophagy ([Sharma et al., 2019]).

LIMK2 = biological target: T30, LIMK2 (Homo sapiens, UniProt P53671); assay: kinome scan; assay type: binding; conditions: 10 µM
T30 construct: purchased DiscoverX (KINOMEscan)

NLK = biological target: T31, NLK (Homo sapiens, UniProt Q9UBE8); assay: kinome scan; assay type: binding; conditions: 10 µM
T31 construct: purchased DiscoverX (KINOMEscan)

MEK5 = biological target: T32, MEK5 (Homo sapiens, UniProt Q13163); assay: kinome scan; assay type: binding; conditions: 10 µM
T32 construct: purchased DiscoverX (KINOMEscan)
T32 sequence (Q13163 whole entry): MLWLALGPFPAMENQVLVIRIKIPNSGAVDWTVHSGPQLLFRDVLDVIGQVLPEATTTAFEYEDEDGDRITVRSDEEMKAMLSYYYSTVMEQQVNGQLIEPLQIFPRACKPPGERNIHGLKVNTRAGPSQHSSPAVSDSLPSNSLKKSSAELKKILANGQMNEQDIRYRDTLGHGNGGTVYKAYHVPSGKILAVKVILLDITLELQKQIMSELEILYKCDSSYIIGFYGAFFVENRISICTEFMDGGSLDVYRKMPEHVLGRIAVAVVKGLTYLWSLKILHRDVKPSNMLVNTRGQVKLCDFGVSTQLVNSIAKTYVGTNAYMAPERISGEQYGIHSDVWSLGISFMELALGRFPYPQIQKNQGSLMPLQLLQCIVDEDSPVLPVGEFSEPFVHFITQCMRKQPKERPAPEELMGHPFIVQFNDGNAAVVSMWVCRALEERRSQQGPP

T17 sequence (P00533 with tags, fused parts or gaps DEL746-750 limits assumed): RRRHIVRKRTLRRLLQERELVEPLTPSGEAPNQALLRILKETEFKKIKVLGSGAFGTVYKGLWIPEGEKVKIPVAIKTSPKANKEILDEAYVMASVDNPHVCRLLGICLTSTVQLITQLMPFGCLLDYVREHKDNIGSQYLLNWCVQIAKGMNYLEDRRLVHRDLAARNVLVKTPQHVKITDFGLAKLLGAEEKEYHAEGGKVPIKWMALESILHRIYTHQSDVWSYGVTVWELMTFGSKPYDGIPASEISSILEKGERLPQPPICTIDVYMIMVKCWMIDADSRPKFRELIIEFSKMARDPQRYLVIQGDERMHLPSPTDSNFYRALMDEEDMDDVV
T1 sequence (Q8N568 whole entry): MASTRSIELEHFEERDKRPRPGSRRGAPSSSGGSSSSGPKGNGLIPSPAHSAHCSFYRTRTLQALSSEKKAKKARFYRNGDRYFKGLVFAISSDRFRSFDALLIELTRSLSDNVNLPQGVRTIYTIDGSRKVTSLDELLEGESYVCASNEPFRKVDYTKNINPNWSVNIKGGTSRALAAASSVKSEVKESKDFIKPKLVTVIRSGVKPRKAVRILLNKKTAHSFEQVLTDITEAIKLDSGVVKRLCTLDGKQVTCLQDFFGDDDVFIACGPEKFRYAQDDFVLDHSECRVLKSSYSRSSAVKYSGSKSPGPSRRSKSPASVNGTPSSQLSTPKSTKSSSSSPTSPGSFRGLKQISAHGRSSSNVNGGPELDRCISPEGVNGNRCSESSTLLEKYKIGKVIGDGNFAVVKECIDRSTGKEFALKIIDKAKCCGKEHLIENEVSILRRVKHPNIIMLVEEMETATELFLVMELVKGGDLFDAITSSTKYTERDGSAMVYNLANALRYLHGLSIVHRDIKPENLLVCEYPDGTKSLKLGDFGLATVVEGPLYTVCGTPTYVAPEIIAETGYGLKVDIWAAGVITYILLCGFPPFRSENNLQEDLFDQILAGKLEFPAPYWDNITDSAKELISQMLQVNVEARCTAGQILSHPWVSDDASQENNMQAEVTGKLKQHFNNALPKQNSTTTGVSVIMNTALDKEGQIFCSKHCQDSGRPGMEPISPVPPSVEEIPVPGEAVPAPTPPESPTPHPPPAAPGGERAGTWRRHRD
T14 sequence (P11362 22-822): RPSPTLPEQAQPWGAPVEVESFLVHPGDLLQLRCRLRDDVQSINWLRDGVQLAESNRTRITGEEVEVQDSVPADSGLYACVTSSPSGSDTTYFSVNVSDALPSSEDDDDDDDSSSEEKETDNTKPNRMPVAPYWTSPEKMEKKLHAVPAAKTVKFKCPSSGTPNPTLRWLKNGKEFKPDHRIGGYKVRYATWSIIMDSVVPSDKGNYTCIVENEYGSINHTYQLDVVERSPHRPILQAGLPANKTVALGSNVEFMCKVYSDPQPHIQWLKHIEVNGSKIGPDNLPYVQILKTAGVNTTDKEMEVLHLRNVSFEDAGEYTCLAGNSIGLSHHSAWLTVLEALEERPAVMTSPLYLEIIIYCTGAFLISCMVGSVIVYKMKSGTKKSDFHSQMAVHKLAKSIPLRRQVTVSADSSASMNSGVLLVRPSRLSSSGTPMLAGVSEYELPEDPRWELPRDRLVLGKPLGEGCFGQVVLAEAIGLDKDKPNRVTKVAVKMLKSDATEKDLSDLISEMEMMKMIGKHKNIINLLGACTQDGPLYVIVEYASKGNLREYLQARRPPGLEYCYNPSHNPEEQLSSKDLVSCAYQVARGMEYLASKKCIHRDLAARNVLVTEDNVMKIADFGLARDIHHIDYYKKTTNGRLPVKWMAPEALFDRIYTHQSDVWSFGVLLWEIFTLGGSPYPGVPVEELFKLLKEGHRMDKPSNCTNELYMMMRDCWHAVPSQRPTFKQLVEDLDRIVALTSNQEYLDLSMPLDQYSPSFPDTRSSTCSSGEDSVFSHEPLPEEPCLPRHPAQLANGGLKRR
T23 sequence (P17948 27-1338): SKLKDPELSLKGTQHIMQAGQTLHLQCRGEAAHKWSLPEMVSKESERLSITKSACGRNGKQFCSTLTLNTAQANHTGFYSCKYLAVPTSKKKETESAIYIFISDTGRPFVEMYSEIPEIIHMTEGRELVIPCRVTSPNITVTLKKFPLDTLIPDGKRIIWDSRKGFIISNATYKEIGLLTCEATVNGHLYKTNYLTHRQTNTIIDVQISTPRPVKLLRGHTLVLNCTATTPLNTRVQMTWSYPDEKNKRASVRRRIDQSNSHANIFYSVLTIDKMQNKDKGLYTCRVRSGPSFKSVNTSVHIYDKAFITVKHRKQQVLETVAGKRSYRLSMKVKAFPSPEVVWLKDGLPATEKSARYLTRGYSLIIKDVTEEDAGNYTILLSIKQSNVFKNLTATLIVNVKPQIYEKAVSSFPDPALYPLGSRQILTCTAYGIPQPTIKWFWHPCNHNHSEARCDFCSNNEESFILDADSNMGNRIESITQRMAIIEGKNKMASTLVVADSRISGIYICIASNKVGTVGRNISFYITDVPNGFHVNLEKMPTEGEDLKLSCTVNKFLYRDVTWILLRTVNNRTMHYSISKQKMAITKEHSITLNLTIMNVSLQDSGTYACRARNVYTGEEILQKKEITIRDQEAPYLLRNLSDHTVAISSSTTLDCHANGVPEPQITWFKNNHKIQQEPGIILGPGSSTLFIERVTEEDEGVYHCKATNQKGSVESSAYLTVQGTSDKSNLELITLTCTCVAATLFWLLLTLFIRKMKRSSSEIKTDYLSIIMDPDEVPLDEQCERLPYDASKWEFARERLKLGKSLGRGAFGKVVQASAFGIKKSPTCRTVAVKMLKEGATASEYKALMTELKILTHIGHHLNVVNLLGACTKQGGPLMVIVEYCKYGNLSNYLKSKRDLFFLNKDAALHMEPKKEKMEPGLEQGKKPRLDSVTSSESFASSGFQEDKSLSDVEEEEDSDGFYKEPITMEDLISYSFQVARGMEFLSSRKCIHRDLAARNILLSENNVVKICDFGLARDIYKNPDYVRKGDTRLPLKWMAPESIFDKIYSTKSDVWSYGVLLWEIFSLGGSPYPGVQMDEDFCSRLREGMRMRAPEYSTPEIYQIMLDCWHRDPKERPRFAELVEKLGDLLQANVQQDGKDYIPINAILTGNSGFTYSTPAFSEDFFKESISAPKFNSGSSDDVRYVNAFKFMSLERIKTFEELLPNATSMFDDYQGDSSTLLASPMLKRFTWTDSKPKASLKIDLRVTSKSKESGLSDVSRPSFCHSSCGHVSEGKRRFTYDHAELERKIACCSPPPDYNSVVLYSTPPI
T12 sequence (P41240 whole entry): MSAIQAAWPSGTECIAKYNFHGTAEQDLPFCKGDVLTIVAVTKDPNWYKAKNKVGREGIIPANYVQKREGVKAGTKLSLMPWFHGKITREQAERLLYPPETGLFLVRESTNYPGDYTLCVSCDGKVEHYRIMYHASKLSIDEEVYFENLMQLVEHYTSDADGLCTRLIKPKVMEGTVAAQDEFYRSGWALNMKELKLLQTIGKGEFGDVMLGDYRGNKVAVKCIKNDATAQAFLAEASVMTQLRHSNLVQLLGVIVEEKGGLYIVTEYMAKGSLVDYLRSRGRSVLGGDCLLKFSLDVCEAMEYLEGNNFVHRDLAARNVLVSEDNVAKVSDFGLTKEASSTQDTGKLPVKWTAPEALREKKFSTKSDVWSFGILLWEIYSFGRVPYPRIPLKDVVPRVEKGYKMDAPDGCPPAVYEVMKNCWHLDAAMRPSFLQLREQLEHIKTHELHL
T15 sequence (Q9BRS2 whole entry): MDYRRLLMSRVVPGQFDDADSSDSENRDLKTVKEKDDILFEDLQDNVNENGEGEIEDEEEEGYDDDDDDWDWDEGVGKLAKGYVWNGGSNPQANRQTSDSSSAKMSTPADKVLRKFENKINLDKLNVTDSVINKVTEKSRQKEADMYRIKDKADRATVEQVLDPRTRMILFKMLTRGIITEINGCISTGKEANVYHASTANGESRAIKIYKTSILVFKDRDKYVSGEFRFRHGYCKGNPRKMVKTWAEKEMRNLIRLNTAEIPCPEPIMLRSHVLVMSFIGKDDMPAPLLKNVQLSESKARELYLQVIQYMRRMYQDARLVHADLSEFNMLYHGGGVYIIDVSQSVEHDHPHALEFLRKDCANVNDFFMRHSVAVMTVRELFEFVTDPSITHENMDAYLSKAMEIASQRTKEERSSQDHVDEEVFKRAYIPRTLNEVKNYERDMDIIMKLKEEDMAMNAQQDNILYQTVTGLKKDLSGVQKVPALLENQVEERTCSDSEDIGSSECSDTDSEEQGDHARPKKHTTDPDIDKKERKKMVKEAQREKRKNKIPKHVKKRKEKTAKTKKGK

Nc1ccc(N=Nc2ccccc2)c(N)n1 [phenazopyridine, 2,6-diamino-3-(phenylazo)pyridine]
kinase inhibition (DCAMKL2): 89 | kinase inhibition (ROCK2): 89 | kinase inhibition (PAK4): 100 | kinase inhibition (CLK2): 75 | kinase inhibition [1]: 100 | kinase inhibition (EPHA2): 95 | kinase inhibition (PRKD1): 100 | kinase inhibition (CIT): 72 | kinase inhibition (NDR2): 100 | kinase inhibition (SRPK3): 94 | kinase inhibition (MEK2): 83 | kinase inhibition (CSK): 100 | kinase inhibition (HUNK): 100 | kinase inhibition (FGFR1): 100 | remaining binding (% of control) (RIOK1): 93 | kinase inhibition (LRRK2(G2019S)): 91 | remaining binding (% of control) (EGFR(E746-A750del)): 69 | kinase inhibition [2]: 89 | Concentration [3]: 20 µM | kinase inhibition [4]: 81 | kinase inhibition (AURKC): 68 | kinase inhibition (TRKC): 90 | kinase inhibition (KIT(V559DT670I)): 71 | remaining binding (% of control) (FLT1): 90 | kinase inhibition (EGFR(L747-T751delSins)): 80 | kinase inhibition (CAMKK1): 100 | kinase inhibition (PIK3C2B): 70 | kinase inhibition [5]: 100 | kinase inhibition (BRAF): 96 | kinase inhibition (PIM3): 100 | kinase inhibition (EPHA7): 91 | number of LC3B-positive autophagosomes (HeLa cells): increased | kinase inhibition (LIMK2): 96 | kinase inhibition (NLK): 88 | kinase inhibition (MEK5): 90

— publication PMC8371461 (Frontiers in Pharmacology, 2021)
